According to US9919034B2, “Methods of treating and prophylactically protecting mammalian patients infected by viruses classified in Baltimore group V” (priority 2014, dated 2018):
Where two headings read alike, the source gives them in different places.

Tests used:
[1] = tested on: adenovirus 2, strain Miller; assay: Adenovirus yield in NHBE cells (titers in A-549 cells); assay type: cell-based; conditions: for reduction in virus titers: vs untreated infected controls
NHBE cells [2] = assay: Microscopy evaluation of treated NHBE cells (RSV study toxicity controls); conditions: sham infected
NHBE cells [3] = tested on: NHBE cells
Vero 76 cells = assay: Toxicity in Vero 76 cells (crystal violet staining density)
vaccinia, strain WR = assay: microbe, parasite or virus in culture; assay type: cell-based; conditions: read-out: EC50 (concentration reducing plaque numbers by 50%)
RV-14 (strain 1059) = assay: RV-14 yield in NHBE cells (titers in HeLa-Ohio-1 cells); assay type: cell-based, rhinovirus-14
NHBE cells [4] = assay: Microscopy evaluation of treated NHBE cells (RV-14 study toxicity controls)
tRNA = conditions: Lin et al., 1994; cited from earlier work
MERS-CoV virus = assay type: cell-based
VEEV = assay type: cell-based
A-72 cells = assay: Cytotoxicity of ranpirnase in A-72 cells (morphology); conditions: any of the concentrations tested, 4 days
[5] = tested on: influenza A/California/07/2009(H1N1)pdm09 virus; assay type: cell-based
RSV A2 = assay: RSV yield in NHBE cells (titers in MA-104 cells); assay type: cell-based; conditions: all treatments (5 μM, 0.5 μM, 0.1 μM), 48 hours post infection
NHBE cells [6] = tested on: NHBE cells; remark: listed apart in the source

Compound: Nc1ccn([C@H]2CC[C@@H](CO)O2)c(=O)n1 [2′3′-dideoxycytidine, reference compound]
- inhibition of virus replication (positive control) ([1]; NHBE cells, adenovirus MOI 0.1): inhibited virus replication as expected
- microscopy evaluation of treated NHBE cells (toxicity) (NHBE cells [2]): no toxicological phenomena
- microscopy evaluation of treated NHBE cells (toxicity) (NHBE cells [3]): no toxicological phenomena

Compound: Nc1ccn(C[C@@H](CO)OCP(=O)(O)O)c(=O)n1 [cidofovir, reference compound]
- toxicity (Vero 76 cells; dilutions used in the assay): Neither ranpirnase nor cidofovir was toxic
- EC50 (vaccinia, strain WR; Orthopoxvirus vaccinia, Vero 76, 48 h): 10 µM

Compound: CCOC(=O)c1ccc(OCCC2CCN(c3ccc(C)nn3)CC2)cc1 [pirodavir, reference compound]
- activity against RV-14 (RV-14 (strain 1059); 0.0032 μg/ml, NHBE cells): inactive
- inhibition of virus replication (positive control) (RV-14 (strain 1059); 10 and 3.2 μg/ml): inhibited virus replication as expected
- microscopy evaluation of treated NHBE cells (toxicity) (NHBE cells [4]): no toxicological phenomena

Compound: ranpirnase
- degradation of tRNA (tRNA): degrades tRNA very effectively
- reduction in virus titers (RV-14 (strain 1059); 1 μM, 4 days post infection): ~1 log
- drop in virus titer (RV-14 (strain 1059); 5 μM, 4 days post infection): ~1.67 log 10
- drop in virus titer (RV-14 (strain 1059); 10 μM, 4 days post infection): ~1.67 log 10
- drop in virus titer (RV-14 (strain 1059); 50 μM, 4 days post infection): ~1.67 log 10
- microscopy evaluation of treated NHBE cells (toxicity) (NHBE cells [4]): no toxicological phenomena
- activity against MERS-CoV virus compared with SARS protease inhibitor and Infergen (viral titer) (MERS-CoV virus): far more active
- reduction in virus titers ([1]; 5 μM): ~1 log
- reduction in virus titers ([1]; 10 μM): ~1 log
- drop in virus titer ([1]; 50 μM, vs placebo): approximately three
- virus titers after treatment ([1]; all treatments except the lowest dose): undetectable levels
- toxicity (Vero 76 cells; 100 μM): not toxic
- toxicity (Vero 76 cells; dilutions used in the assay): Neither ranpirnase nor cidofovir was toxic
- inhibition of VEEV (VEEV): robust inhibition
- SI (CC50/IC50) (CHIV): over 18
- inhibition of CHIV (CHIV): robust inhibition
- cytotoxic effect (visual morphology) (A-72 cells): no apparent cytotoxic effect
- microscopy evaluation of treated NHBE cells (toxicity) (NHBE cells [2]): no toxicological phenomena
- activity against influenza A/California/07/2009(H1N1)pdm09 virus (virus titer) [5]: statistically significant and dose-dependent
- EC50 (vaccinia, strain WR): 3.8 µM
- reduction in virus titers compared to untreated, infected controls (RSV A2): 2.3 log
- virus titers after treatment (RSV A2): undetectable levels
- SI (CC50/IC50) (EBOV): 40-77
- inhibition of EBOV (EBOV): robust inhibition
- viability of NHBE cells (NHBE cells [6]): did not decrease the viability
- microscopy evaluation of treated NHBE cells (toxicity) (NHBE cells [3]): no toxicological phenomena
